Experimental data taken from patent US20220324800A1 (priority 2021, published 2022).

target: 3CLpro (Severe acute respiratory syndrome coronavirus 2, UniProt P0DTD1); experiment: biochemical; design: species or system SARS-CoV-2

Row | SMILES | IC50
1 | CC(C)C[C@H](NC(=O)OC(C)(C)C)C(=O)CN(C[C@@H]1CCNC1=O)C(=O)CCl [Example 1, Tert-butyl ((S)-1-(2-chloro-N—(((S)-2-oxopyrrolidin-3-yl)methyl)acetamido)-5-methyl-2-oxohexan-3-yl)carbamate] | < 2 µM
2 | COc1cccc2[nH]c(C(=O)N[C@@H](CC(C)C)C(=O)CN(C[C@@H]3CCNC3=O)C(=O)CCl)cc12 [Example 2, N—((S)-1-(2-Chloro-N—(((S)-2-oxopyrrolidin-3-yl)methyl)acetamido)-5-methyl-2-oxohexan-3-yl)-4-methoxy-1H-indole-2-carboxamide] | < 2 µM
3 | C=CC(=O)N(CC(=O)[C@H](CC(C)C)NC(=O)OC(C)(C)C)C[C@@H]1CCNC1=O [Example 3, Tert-butyl ((S)-5-methyl-2-oxo-1-(N—(((S)-2-oxopyrrolidin-3-yl)methyl)acrylamido)hexan-3-yl)carbamate] | > 20 µM
4 | C=CC(=O)N(CC(=O)[C@H](CC(C)C)NC(=O)c1cc2c(OC)cccc2[nH]1)C[C@@H]1CCNC1=O [Example 4, 4-Methoxy-N—((S)-5-methyl-2-oxo-1-(N—(((S)-2-oxopyrrolidin-3-yl)methyl)acrylamido)hexan-3-yl)-1H-indole-2-carboxamide] | > 20 µM
5 | C#CC(=O)N(CC(=O)[C@H](CC(C)C)NC(=O)c1cc2c(OC)cccc2[nH]1)C[C@@H]1CCNC1=O [Example 6, 4-Methoxy-N—((S)-5-methyl-2-oxo-1-(N—(((S)-2-oxopyrrolidin-3-yl)methyl)propiolamido)hexan-3-yl)-1H-indole-2-carboxamide] | 2 to 20 µM
6 | COc1cccc2[nH]c(C(=O)N[C@@H](CC(C)C)C(=O)CN(C[C@@H]3CCNC3=O)C(=O)CF)cc12 [Example 8, N—((S)-1-(2-Fluoro-N—(((S)-2-oxopyrrolidin-3-yl)methyl)acetamido)-5-methyl-2-oxohexan-3-yl)-4-methoxy-1H-indole-2-carboxamide] | > 20 µM
7 | COc1cccc2[nH]c(C(=O)N[C@@H](CC(C)C)C(=O)CN(C[C@@H]3CCNC3=O)S(=O)(=O)CCl)cc12 [Example 10, N—((S)-1-((1-Chloro-N—(((S)-2-oxopyrrolidin-3-yl)methyl)methyl)sulfonamido)-5-methyl-2-oxohexan-3-yl)-4-methoxy-1H-indole-2-carboxamide] | > 20 µM
8 | CC(C)C[C@H](NC(=O)c1cc(Cl)c(Cl)s1)C(=O)CN(C[C@@H]1CCNC1=O)C(=O)CCl [Example 11, 4,5-Dichloro-N—((S)-1-(2-chloro-N—(((S)-2-oxopyrrolidin-3-yl)methyl)acetamido)-5-methyl-2-oxohexan-3-yl)thiophene-2-carboxamide] | < 2 µM
9 | CC(C)C[C@H](NC(=O)c1cc2c(F)cccc2s1)C(=O)CN(C[C@@H]1CCNC1=O)C(=O)CCl [Example 12, N—((S)-1-(2-Chloro-N—(((S)-2-oxopyrrolidin-3-yl)methyl)acetamido)-5-methyl-2-oxohexan-3-yl)-4-fluorobenzo[b]thiophene-2-carboxamide] | < 2 µM
10 | CC(C)C[C@H](NC(=O)c1cccs1)C(=O)CN(C[C@@H]1CCNC1=O)C(=O)CCl [Example 13, N—((S)-1-(2-Chloro-N—(((S)-2-oxopyrrolidin-3-yl)methyl)acetamido)-5-methyl-2-oxohexan-3-yl)thiophene-2-carboxamide] | < 2 µM
11 | CC(C)C[C@H](NC(=O)c1cc2ccccc2o1)C(=O)CN(C[C@@H]1CCNC1=O)C(=O)CCl [Example 14, N—((S)-1-(2-Chloro-N—(((S)-2-oxopyrrolidin-3-yl)methyl)acetamido)-5-methyl-2-oxohexan-3-yl)benzofuran-2-carboxamide] | < 2 µM
12 | CC(C)C[C@H](NC(=O)c1cc2c(F)cccc2o1)C(=O)CN(C[C@@H]1CCNC1=O)C(=O)CCl [Example 15, N—((S)-1-(2-Chloro-N—(((S)-2-oxopyrrolidin-3-yl)methyl)acetamido)-5-methyl-2-oxohexan-3-yl)-4-fluorobenzofuran-2-carboxamide] | < 2 µM
13 | CC(C)C[C@H](NC(=O)OC(C)(C)C)C(=O)CN(C[C@@H]1CCNC1=O)C(=O)SCc1ccccc1 [Example 16, Tert-butyl ((S)-1-(((benzylthio)carbonyl)(((S)-2-oxopyrrolidin-3-yl)methyl)amino)-5-methyl-2-oxohexan-3-yl)carbamate] | > 20 µM
14 | CC(=O)OCC(=O)N(CC(=O)[C@H](CC(C)C)NC(=O)OC(C)(C)C)C[C@@H]1CCNC1=O [Example 17, 2-(((S)-3-((Tert-butoxycarbonyl)amino)-5-methyl-2-oxohexyl)(((S)-2-oxopyrrolidin-3-yl)methyl)amino)-2-oxoethyl acetate] | > 20 µM
15 | COc1cccc2[nH]c(C(=O)N[C@@H](CC(C)C)C(=O)CN(C[C@@H]3CCNC3=O)C(=O)SCc3ccccc3)cc12 [Example 18, S-Benzyl ((S)-3-(4-methoxy-1H-indole-2-carboxamido)-5-methyl-2-oxohexyl)(((S)-2-oxopyrrolidin-3-yl)methyl)carbamothioate] | > 20 µM
16 | CC(C)C[C@H](NC(=O)OCc1ccccc1)C(=O)CN(C[C@@H]1CCNC1=O)C(=O)CCl [Example 20, Benzyl ((S)-1-(2-chloro-N—(((S)-2-oxopyrrolidin-3-yl)methyl)acetamido)-5-methyl-2-oxohexan-3-yl)carbamate] | < 2 µM
17 | CC(C)C[C@@H](NC(=O)OCc1ccccc1)C(=O)CN(C[C@@H]1CCNC1=O)C(=O)CCl [Example 21, Benzyl ((R)-1-(2-chloro-N—(((S)-2-oxopyrrolidin-3-yl)methyl)acetamido)-5-methyl-2-oxohexan-3-yl)carbamate] | 2 to 20 µM
